Where a name gives a salt, the structure may show the parent alone. Read-outs that look alike come from different tables or passages of the source.
Assays:
human platelet PLA2 = molecular target: T1, human platelet PLA2 (Homo sapiens, UniProt P14555); assay: Inhibition of human platelet PLA2 (hydrolysis of [1-14C]oleic acid labelled E. coli membrane phospholipids) in vitro; assay type: biochemical; details: for IC50: standard drugs
T1 sequence (P14555 21-144): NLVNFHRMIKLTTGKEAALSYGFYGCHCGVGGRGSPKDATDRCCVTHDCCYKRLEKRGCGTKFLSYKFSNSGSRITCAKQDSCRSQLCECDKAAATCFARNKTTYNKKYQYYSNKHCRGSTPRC
Experimental: The ability of the compounds to inhibit the activity of PLA2 enzyme is measured in the following in vitro assay.
The assay measures the hydrolysis of E. coli membrane phospholipids and the release of free [1-^14 C] oleic acid from the C-2 position of phospholipids by human platelet PLA2. To ice cold 15×100 mm test tubes, the following additions are made: 2,5×10 E. coli (equivalent to 4 nmol phospholipid), 5 mM Ca^++, 100 mM Tris buffer (pH=7.4), 100 μg platelet extract (or an amount to produce 20-30% hydrolysis), drug or vehicle. The final volume is adjusted to 500 μl with water. Mixtures are vortexed and incubated for 30 minutes in a shaking water bath. It should be noted that preliminary experiments are always performed with each new batch of platelets to establish linear hydrolysis of phospholipids with regard to protein concentration and time. The enzyme reaction is stopped by the addition of 3 volumes of chloroform to each tube which is vortexed and then centrifuged for 5 minutes at 500 g. The lower chloroform/methanol phase is removed and evaporated under N. The dried residue is redissolved in 50 μl CHCl3 :CH3 OH (9:1 v/v), spotted on aluminum-backed chromatographic plates and developed in a solvent system consisting of petroleum ether:diethyl ether:acetic acid (80:20:1). Free fatty acid ([1-^14 C]oleic acid) and [1-^14 C]oleic acid labeled phospholipids are visualized with exposure to iodine vapors. Radioactive areas that cochromatographed with authentic oleic acid and phospholipid standards are cut out and placed in a scintillation vial. One ml CH3 OH and 10 ml Hydrofluor are added to each cut strip and radioactivity is determined by liquid scintillation counting.
The percent hydrolysis is calculated by the following equation: [formula]

[1] = system: rat carrageenan paw edema; assay: Rat carrageenan paw edema assay; assay type: in vivo, male Sprague-Dawley rats; details: for % Inhibition (paw edema): 100 mg/kg peroral, 1 hour prior to carrageenan, paw read at 3 hours
Experimental: The compounds of the invention are further tested in the rat carrageenan paw edema assay to determine their ability to inhibit the acute inflammatory response.
This assay is carried out as follows:
140-180 gm male Sprague-Dawley rats, in groups of 6 animals are injected subcutaneously in the right paw with 0.1 ml of 1% carrageenan at zero time. Mercury plethysmographic readings (ml) of the paw are made at zero time and 3 hours later. Test compounds are suspended or dissolved in 0.5% methylcellulose and given perorally 1 hour prior to carrageenan administration.
The increase in paw volume (edema in ml.) produced by the carrageenan is measured. […] Unpaired Student's t-test used to determine statistical significance.

[2] = system: 12-O-tetradecanoylphorbol acetate (TPA)-induced murine ear edema; assay: TPA-induced murine ear edema test; assay type: in vivo, Swiss Webster female mice; details: oral, 30 minutes after TPA; 4 μg TPA/ear; measured 4 hours after TPA; dose in mg/kg not given
Experimental: The ability of the compounds of the invention to inhibit PLA2 is further examined in the in vivo 12-O-tetradecanoylphorbol acetate (TPA)-induced murine ear edema test. According to this test, Swiss Webster female mice (Buckshire), approximately 8 weeks old, are placed into plastic boxes in groups of six. Eight groups of mice receive TPA topically on the right ear. TPA is dissolved in acetone at a concentration of […]. The phlogistics are applied to the right ear by the means of an automatic pipet. Volumes of 10 μl are applied to the inner and outer surfaces of the ear. Each mouse receives 4 μg/ear TPA. The left ear (control) receives acetone delivered in the same manner. […] Measurements are taken with Oditest calipers, 0-10 mm with 0.01 graduations. The right and left ears are measured 4 hours after TPA-induced inflammation. The difference between right and left ear thickness is calculated and the significance is determined by a one way analysis of variance with Dunnett's comparisons to control (P=0.05). Drug effects are expressed as a percent change from control values: [formula]

[3] = system: synthesis of arachidonic acid, PGE2 and LTC4 by murine peritoneal macrophages; assay: Inhibition of synthesis of arachidonic acid, PGE2 and LTC4 by murine peritoneal macrophages; assay type: cell-based, CD-1 mice; details: Mus musculus, Peritoneal macrophage, 2 hours
Experimental: The ability of the compounds of the invention to inhibit both leukotriene and prostaglandin synthesis is examined in an assay which measures the ability of the compounds of the invention to inhibit the synthesis of arachidonic acid, PGE2 and LTC4 by murine peritoneal macrophages.
The assay is carried out as follows:
Macrophages are removed from the peritoneal cavity of 55-57 day old CD-1 mice (killed by CO2 asphyxiation) by peritoneal lavage and centrifuged at 400×g for ten minutes. The cells are resuspended in Medium 199 and 4×10^6 cells are allowed to adhere on 35×10 mm Petri dishes for 1.5 hours at 37° C. in an atmosphere of 95% air and 5% CO2. The cell monolayers are washed and incubated overnight in Medium 199 supplemented with 10% heat inactivated bovine serum containing 1μCi[^14 C]-arachidonic acid, or in the absence of ^14 C-arachidonic acid when the supernatant is to be assayed by radioimmunoassay (RIA). The labeled cells are then washed and incubated at 37° C. for 2 hours in Medium 199 with the prostaglandin stimuli, zymosan, or 12-o-tetradecanoyl-phorbol-13-acetate (TPA) and in the presence or absence of test compounds. Following incubation, the supernatant is removed and subjected to radioimmunoassay in order to determine the percent inhibition of arachidonic acid, prostaglandin E2 and leukotriene C4 by the test compounds.

[4] = at 100 μM, human platelet PLA2, 30 minutes, pH 7.4, read-out: % Inhibition of PLA2
[5] = human platelet PLA2, 30 minutes, pH 7.4
[6] = pH 7.4, read-out: % Inhibition of PLA2

Row | Compound | inhibition at 100 µM (human platelet PLA2; [4]) [%] | inhibition at 100 µM (human platelet PLA2; [6]) [%] | other results
1 | CCCCCCCCCCCCCCCCNC(=O)[C@H]1CCCN1 [Example 5b, N-(R)-Hexadecyl-2-pyrrolidinecarboxamide] | 98 | – | % Inhibition (paw edema) [1]: 26%
2 | O=C(C1CCCCN1)N1CCC2CCCCC2C1 (centres unmarked) [Example 5f, Decahydro-2-(2-piperidininylcarbonyl)isoquinoline, hydrochloride] | 24 | – | –
3 | Gold Sodium Thiomalate [reference compound] | – | – | IC50 (human platelet PLA2; [5]): 43 µM
4 | O=C(NC1CCCCCCCCCCC1)C1CCCN1 (centres unmarked) [Example 5c, N-Cyclododecyl-2-pyrrolidinecarboxamide, hydrochloride] | – | 58 | –
5 | CCCCC(N)C(=O)NC1CCCCCCCCCCC1.Cl (centres unmarked) [Example 2a, 2-Amino-N-cyclododecylhexanamide, hydrochloride] | – | 76 | % Change from Control (mouse ear edema) [2]: -60%; % Inhibition (paw edema) [1]: 22%
6 | N[C@@H](CC(=O)OCc1ccccc1)C(=O)NC1CCCCCCCCCCC1 [Example 7, (S)-3-Amino-4-(cyclododecylamino)-4-oxobutanoic acid phenylmethyl ester, hydrochloride] | – | 60 | –
7 | CCCC[C@H](N)C(=O)N1CCC(C)CC(C)(C)C1 (stereo partly drawn) [Example 2b, 1-[(S)-2-Amino-1-oxohexyl]hexahydro-3,3,5-trimethyl-1H-azepine, hydrochloride] | – | 25 | –
8 | CCCC[C@H](NC(=O)CCCCCCc1ccccc1)C(=O)N1CC(C)NC(C)C1 (stereo partly drawn) [Example 3, N-[(S)-1-Butyl-2-(3,5-dimethyl-1-piperazinyl)-2-oxoethyl]benzeneheptanamide] | 64 | – | % Change from Control (mouse ear edema) [2]: -39%
9 | CCCCCCCCCCCCCCCCNC(=O)[C@@H]1CCCN1 [Example 5a, N-(S)-Hexadecyl-2-pyrrolidinecarboxamide] | 92 | – | IC50 ([3]; arachidonic acid, zymosan or TPA stimulus, read-out: IC50 AA): 19.6 µM; IC50 ([3]; leukotriene C4, zymosan or TPA stimulus, read-out: IC50 LTC4): 7.6 µM; IC50 ([3]; prostaglandin E2, zymosan or TPA stimulus, read-out: IC50 PGE2): 13.7 µM; % Change from Control (mouse ear edema) [2]: -53%; % Inhibition (paw edema) [1]: 26%
10 | CCCC[C@H](N)C(=O)N1CCC2CCCCC2C1 (stereo partly drawn) [Example 2c, 2-[(S)-2-Amino-1-oxohexyl]decahydroisoquinoline, hydrochloride hemihydrate] | 24 | – | –
11 | CCCCC(NC(=O)Cc1ccc(-c2ccccc2)cc1)C(=O)N1CC(C)NC(C)C1 (centres unmarked) [Example 4, N-[1-[(3,5-Dimethyl-1-piperazinyl)carbonyl]pentyl][1,1'-biphenyl]-4-acetamide] | 52 | – | –
12 | CCCCCCCCCCCCCCCCNC(=O)C(N)CCCC.Cl (centres unmarked) [Example 1, 2-Amino-N-hexadecylhexanamide, hydrochloride] | – | 99 | % Change from Control (mouse ear edema) [2]: -25%
13 | O=C(NC1CCCCCCCCCCC1)C1CCCCN1 (centres unmarked) [Example 5d, N-Cyclododecyl-2-piperidinecarboxamide, hydrochloride] | – | 45 | –
14 | COc1ccc2c(c1)c(CC(=O)O)c(C)n2C(=O)c1ccc(Cl)cc1 [Indomethacin, reference compound] | – | – | IC50 (human platelet PLA2; [5]): 48 µM; ED50 ([1]; Rattus norvegicus, po, 3 h, read-out: Oral ED50 (95% C.L.)): 3.7 mg/kg
15 | N[C@@H](Cc1c[nH]c2ccccc12)C(=O)NC1CCCCCCCCCCC1 [Example 6, (S)-α-Amino-N-cyclododecyl-1H-indole-3-propanamide, hydrochloride] | – | 52 | –
